One assay relates to db/db mice. Kind of assay: Hypoglycemic action and triglyceride-decreasing action in db/db mice. It is filed as in vivo. The settings on record: Mus musculus, 360 h; for inhibition in vivo at 3 mg/kg: 3 mg/kg oral once a day for 2 weeks; for inhibition in vivo at 1 mg/kg: 1 mg/kg oral once a day for 2 weeks. As for the experimental part: Test for Measuring Hypoglycemic Action and Triglyceride-Decreasing Action in db/db Mice
Each of test compounds was administered once a day for 2 weeks to db/db mice genetically presenting pathological conditions of obesity, hyperglycemia, and hyperlipidemia. Blood was collected from the mice immediately before the start of administration of a test sample or a vehicle on the first day. Plasma glucose levels and triglyceride levels were measured, and the mice were divided into groups so that average glucose levels and triglyceride levels gave no significant value among the groups. All the test samples were suspended in a 0.5% methylcellulose (MC) solution and orally administered. For a vehicle-administered control group, a 0.5% MC solution was orally administered. Blood samples were collected from the mice on the 15th day, and plasma glucose levels and triglyceride levels were measured. A hypoglycemic rate and triglyceride-reducing rate were calculated by using the following equations.

Assay [1] has as its system hamsters fed with high cholesterol diet. The assay can be described thus: Total plasma cholesterol and non-HDL cholesterol reducing action in hamster fed high cholesterol diet. It is filed as in vivo. The settings on record: Mesocricetus auratus, 192 h, hamsters on high cholesterol diet, 10 mg/kg oral once a day for one week, plasma on 8th day. On the procedure: Test for Measuring Total Plasma Cholesterol Reducing Action and Non-HDL Cholesterol (VLDL Cholesterol+LDL Cholesterol) Reducing Action in Hamster
A test compound (10 mg/kg) was administered once a day for one week to hamsters fed with high cholesterol diet (CE-2 (Clea Japan)+1% cholesterol+10% coconut oil) for five days. The plasma cholesterol level and the plasma HDL cholesterol level were measured immediately before the start of the administration of the test sample or vehicle on the 1st day, and the hamsters were divided into groups so that the groups gave no significant value of initial levels of the both measurements. Each of the test samples was dissolved in a 0.5% methylcellulose (MC) solution and orally administered. A 0.5% methylcellulose (MC) solution was orally administered to the hamsters as a vehicle control group. A blood sample was collected on the 8th day, and the plasma cholesterol level and the plasma HDL cholesterol level were measured. The total cholesterol reducing rate was obtained by using the following equation. [formula]
Further, non-HDL cholesterol level (LDL cholesterol level+VLDL cholesterol level) was calculated as (Total cholesterol level−HDL cholesterol level), and the reducing rate thereof was calculated by using the following equation. [formula]

The subject of another assay is Zucker rats. Kind of assay: Liver triglyceride contents in Zucker rats. The settings on record: Rattus norvegicus, 336 h, 1 mg/kg once a day for 2 weeks, read-out: Triglyceride reducing rate (%). It is filed as in vivo. On the procedure: Measurement of Liver Triglyceride Contents in Zucker Rats
To Zucker rats, a vehicle (0.5% MC), a compound of the present invention or fenofibrate (Sigma) was administered once a day for 2 weeks. The livers were isolated on the next day of the final administration, and amounts of triglyceride in the livers were determined. Triglyceride was extracted by adding 5 ml of a mixture of hexane and isopropanol (2:1, V/V) to 100 mg of liver, homogenizing the liver using Polytron homogenizer, then sufficiently stirring and centrifuging the homogenate at 2000 g for 10 minutes at room temperature. The amount of triglyceride in the solution layer was measured.

Assay [2] has as its system 3T3-L1 precursor adipocytes. The assay can be described thus: Uptake of glucose by adipocytes ([3H]-2-deoxy-glucose uptake). It is filed as cell-based. The following applies: Mus musculus, 100 nM compound, 4 to 5 days culture, 100 nM insulin stimulation, relative to 10 μM rosiglitazone taken as 100%, read-out: Amount of glucose uptake (%). On the procedure: (§1) Test for Uptake of Glucose By Adipocytes and Test for Triglyceride Accumulation in Adipocytes
According to the method of Mukherjee et al. (Mol. Endocrinol, 14, 1425–1433, 2000), a glucose uptake experiment was performed by using cultured cells. 3T3-L1 precursor adipocytes were cultured for 4 to 5 days in the presence of a test compound, and then stimulated with 100 nM insulin, and then the amount of [^3H]-2-deoxy-glucose (2DG) uptake by the cells was measured. The amount of glucose uptake provided after the treatment with 100 nM of each compound was measured, and represented as a relative value based on the amount of glucose uptake provided after the treatment with 10 μM rosiglitazone, which was taken as 100%.

In assay [3] the test system is 3T3-L1 precursor adipocytes. Kind of assay: Triglyceride accumulation in adipocytes. The assay is classed as cell-based. The settings on record: Mus musculus, 100 nM compound, 4 to 5 days culture, relative to 10 μM rosiglitazone taken as 100%, read-out: Amount of accumulated triglyceride (%). As for the experimental part: as §1
Further, 3T3-L1 precursor adipocytes were cultured for 4 to 5 days in the presence of a test compound, and then the amount of triglyceride in the cells was measured according to the method of Shibata T et al. (Eur. J. Pharmacol., 364 (2–3), 211–219, 1999). The amount of accumulated triglyceride provided after the treatment with 100 nM of each compound was measured, and represented as a relative value based on the amount of accumulated triglyceride provided after the treatment with 10 μM rosiglitazone, which was taken as 100%.

The mark [4] stands for this setting: plasma glucose on 15th day vs vehicle, read-out: Hypoglycemic rate (%).
Setting [5] is: plasma triglyceride on 15th day vs vehicle, read-out: Triglyceride reducing rate (%).
Where [6] appears, read: non-HDL = total cholesterol - HDL cholesterol, read-out: Non-HDL cholesterol reducing rate (%).
Setting [7] is: read-out: Total cholesterol reducing rate (%).

The structures appear in SMILES notation. Read-outs that look alike come from different tables or passages of the source.

Take `CCCCCCCN(CCOc1ccc(CC(OCC)C(=O)OCC)cc1)C(=O)OCC(F)(F)F` (centres unmarked) [Example 96, 2-ethoxy-3-(4-{2-[N-heptyl-N-(2,2,2-trifluoroethoxycarbonyl)amino]ethoxy}phenyl)propionic acid ethyl ester]: the inhibition in vivo at 3 mg/kg came to 38% in the assay on db/db mice (setting [4]) and 31% with db/db mice (setting [5]). The inhibition in vivo at 10 mg/kg was found to be 23% in assay [1] (setting [6]) and 24% in assay [1] (setting [7]). In addition, the inhibition in vivo at 1 mg/kg with Zucker rats is 39%. For the same compound, the Emax at 0.1 µM in assay [2] came out at 85%; in assay [3] it was 80%.

As to `CCCCOCCN(CCOc1ccc(CC(OC(C)C)C(=O)O)cc1)C(=O)OC(C)C` (centres unmarked) [Example 130, 3-(4-{2-[N-(2-butoxyethyl)-N-isopropoxycarbonylamino]ethoxy}phenyl)-2-isopropoxypropionic acid], the results for the inhibition in vivo at 1 mg/kg in the assay with db/db mice (setting [4]), with db/db mice (setting [5]) and in the assay with Zucker rats were 41%, 40% and 32%, respectively. The inhibition in vivo at 10 mg/kg in assay [1] (setting [6]) and in assay [1] (setting [7]) was 22% in each case. Besides, the Emax at 0.1 µM in assay [2] stood at 92%; in assay [3], 90%.

In the case of `C#CCOC(=O)N(CCCCCCC)CCOc1ccc(CC(OCC)C(=O)O)cc1` (centres unmarked) [Example 67, 2-ethoxy-3-(4-{2-[N-heptyl-N-(2-propynyloxycarbonyl)amino]ethoxy}phenyl)propionic acid], the inhibition in vivo at 1 mg/kg turned out to be 17% in the assay on db/db mice (setting [4]), 26% in the assay on db/db mice (setting [5]) and 47% in the assay with Zucker rats. In addition, the inhibition in vivo at 10 mg/kg in assay [1] (setting [6]) was 32%; in assay [1] (setting [7]) it was 34%. The Emax at 0.1 µM in assay [2] came out at 91%; in assay [3], 92%.

On to `CCCCCCCN(CCOc1ccc(CC(OCC)C(=O)O)cc1)C(=O)OCC` (centres unmarked) [Example 75, 2-ethoxy-3-{4-[2-(N-ethoxycarbonyl-N-heptylamino)ethoxy]phenyl}propionic acid], for which the inhibition in vivo at 3 mg/kg with db/db mice (setting [4]) was found to be 38%; in the assay on db/db mice (setting [5]), 32%. For the same compound, the inhibition in vivo at 10 mg/kg in assay [1] (setting [6]) stood at 46%; in assay [1] (setting [7]), 48%. In addition, in the assay on Zucker rats, the inhibition in vivo at 1 mg/kg stood at 32%. The Emax at 0.1 µM in assay [2] and in assay [3] was 98% throughout.

Consider `CCOC(Cc1ccc(OCCN(CCOc2ccccc2)C(=O)OC(C)C)cc1)C(=O)O` (centres unmarked) [Example 92, 2-ethoxy-3-(4-{2-[N-isopropoxycarbonyl-N-(2-phenoxyethyl)amino]ethoxy}phenyl)propionic acid], for which the results for the inhibition in vivo at 3 mg/kg in the assay with db/db mice (setting [4]) and with db/db mice (setting [5]) were 4% and 12%, respectively. Besides, the values for the inhibition in vivo at 10 mg/kg in assay [1] (setting [6]) and in assay [1] (setting [7]) were 10% and 8%, respectively. Further, the inhibition in vivo at 1 mg/kg in the assay on Zucker rats came to 2%. In addition, the figures for the Emax at 0.1 µM in assay [2] and in assay [3] were 90% and 92%, respectively.

For the compound `CCCCCCCN(CCOc1ccc(CC(OCC)C(=O)O)cc1)C(=O)OC(C)C` (centres unmarked) [Example 66, 2-ethoxy-3-{4-[2-(N-heptyl-N-isopropyloxycarbonylamino)ethoxy]phenyl}propionic acid], the inhibition in vivo at 1 mg/kg in the assay on db/db mice (setting [4]) worked out at 32%; in the assay on db/db mice (setting [5]), 57%; in the assay on Zucker rats, 44%. Besides, the inhibition in vivo at 10 mg/kg in assay [1] (setting [6]) was determined as 42%; in assay [1] (setting [7]) it was 40%. Further, the Emax at 0.1 µM in assay [2] stood at 95%; in assay [3], 80%.

On to `CCCCCCCN(CCOc1ccc(CC(OC(C)C)C(=O)O)cc1)C(=O)OC` (centres unmarked) [Example 118, 3-{4-[2-(N-heptyl-N-methoxycarbonylamino)ethoxy]phenyl}-2-isopropoxypropionic acid], for which the results for the inhibition in vivo at 1 mg/kg in the assay with db/db mice (setting [4]), in the assay with db/db mice (setting [5]) and in the assay on Zucker rats were 42%, 51% and 47%, respectively. For the same compound, the inhibition in vivo at 10 mg/kg came out at 50% in assay [1] (setting [6]) and 45% in assay [1] (setting [7]). Further, the Emax at 0.1 µM stood at 60% in assay [2] and 55% in assay [3].

Take `CCCCOCCN(CCOc1ccc(CC(OCC)C(=O)O)cc1)C(=O)OCC(C)C` (centres unmarked) [Example 123, 3-(4-{2-[N-(2-butoxyethyl)-N-isobutoxycarbonylamino]ethoxy}phenyl)-2-ethoxypropionic acid]: the figures for the inhibition in vivo at 3 mg/kg with db/db mice (setting [4]) and in the assay on db/db mice (setting [5]) were 8% and 32%, respectively. Also, the inhibition in vivo at 10 mg/kg in assay [1] (setting [6]) and in assay [1] (setting [7]) was 25% throughout. For the same compound, the inhibition in vivo at 1 mg/kg with Zucker rats was 35%. In addition, the Emax at 0.1 µM was found to be 99% in assay [2] and 96% in assay [3].

The values above are taken from US7015345B2, “Propionic acid derivatives” (Asahi Kasei Pharma Corporation, priority 2002, dated 2006).
